Data as given in PMC12475274, “Harnessing indole scaffolds to identify small-molecule IRE1α inhibitors modulating XBP1 mRNA splicing” (Nature Communications, 2025).
Several values for one entry are separate records, joined by “and”; a condition that tells them apart may be missing. Identical values can stand only once. Like-named read-outs stand apart in the source and are kept apart here.

Columns and labels:
[1] = target: T1, dephosphorylated IRE1α (547–977) (Homo sapiens, UniProt O75460); test: FRET-based IRE1α RNase activity assay, dephosphorylated IRE1α; type: biochemical; conditions: for IC50: FRET assay; for activity (fold change): IRE1a
T1 construct: Human IRE1α kinase and RNase domain (residues 547–977) was subcloned into pLIB plasmid; His tag (with TEV cleavage site) (N, cleaved yes); made in house; host or cells: Sf9 insect cells, baculovirus (Bac-to-Bac)
T1 sequence (O75460 547-977): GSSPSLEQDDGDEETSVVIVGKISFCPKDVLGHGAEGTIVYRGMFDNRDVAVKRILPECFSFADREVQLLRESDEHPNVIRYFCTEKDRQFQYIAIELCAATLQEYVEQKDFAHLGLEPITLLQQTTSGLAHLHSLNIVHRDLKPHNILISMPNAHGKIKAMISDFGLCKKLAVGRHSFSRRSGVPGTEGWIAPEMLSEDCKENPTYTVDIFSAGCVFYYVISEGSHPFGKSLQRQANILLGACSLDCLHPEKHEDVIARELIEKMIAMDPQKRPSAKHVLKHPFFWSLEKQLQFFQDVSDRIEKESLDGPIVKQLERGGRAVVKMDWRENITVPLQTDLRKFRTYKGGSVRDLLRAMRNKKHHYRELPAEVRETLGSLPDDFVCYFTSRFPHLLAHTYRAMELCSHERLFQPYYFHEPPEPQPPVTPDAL
Procedure, shortened: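 Dephosphorylated human IRE1α (residues 547–977, Sf9-expressed, λ-phosphatase treated), 40 nM, preincubated 30 min with compound at room temperature, then 100 nM FAM/BHQ1 XBP1 RNA added in HEPES pH 7.5 buffer. Fluorescence (485/535 nm) read kinetically for 1 h; inhibition from linear-phase slopes versus DMSO, fitted to IC50.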

p-IRE1α = target: T2, p-IRE1α (Homo sapiens, UniProt O75460); test: Differential scanning fluorimetry (DSF), p-IRE1α; type: binding; conditions: individual replicate values
T2 construct: Human IRE1α kinase and RNase domain (residues 547–977) was subcloned into pLIB plasmid; His tag (with TEV cleavage site) (N, cleaved yes); made in house; host or cells: Sf9 insect cells, baculovirus (Bac-to-Bac)
T2 sequence (O75460 547-977): as above
Protocol: The DSF assay was performed in PBS buffer containing 2 mM DTT, in a total reaction volume of 20 µl with indicated compounds (final 1% DMSO) and the final concentration of 1 µM IRE1α protein and 5× SYPRO Orange fluorescent dye (5000× in DMSO, Sigma S5692). The melting curve was measured at a temperature range from 25 °C to 95 °C and in increments of 1 °C for 30 s using a Bio-Rad CFX96 Real-Time PCR detection system with the FRET scan mode. The melting temperature (Tm) was obtained by fitting the melting curve to Boltzmann sigmoidal in GraphPad Prism and the thermal shift (∆Tm) was calculated by using the equation: ∆Tm = Tm(compound) -Tm(DMSO).

dephosphorylated IRE1α = target: T3, dephosphorylated IRE1α (Homo sapiens, UniProt O75460); test: Isothermal titration calorimetry (ITC), incl. competitive ITC; type: binding; conditions: for Kd: titrating 200 μM compound into 10 μM IRE1α, no competitor (DMSO), read-out: KD (ITC)
T3 construct: Human IRE1α kinase and RNase domain (residues 547–977) was subcloned into pLIB plasmid; His tag (with TEV cleavage site) (N, cleaved yes); made in house; host or cells: Sf9 insect cells, baculovirus (Bac-to-Bac)
T3 sequence (O75460 547-977): as above
Protocol: The dephosphorylated IRE1α protein was used directly after purification, ITC experiments were carried out at 25 °C using MicroCal PEAQ-ITC system (Malvern) in buffer 25 mM HEPES pH 7.5, 250 mM NaCl, 1 mM TCEP, 5% glycerol, 1% DMSO. The solution was diluted to a final 1% DMSO in the same buffer as for the protein. Protein and compound solution were degassed before loading to the cell and syringe respectively. Unless otherwise noted, 200 μM of compound was loaded into the syringe and 10 μM of IRE1α protein was loaded into the sample cell. For competitive ITC, the protein was incubated with the indicated compound at 25 °C (final 1% DMSO) before loading to the cell. Instrument settings were: reference power 10 μcal/s, feedback high, stir speed 750 rpm, initial delays 60 s, injection spacing 150 s, injection duration 4 s. All experiments were performed with a single 0.4 μL injection followed by 18 (or 15), 2 μL injections. Data were analyzed using MicroCal PEAQ-ITC analysis software. The one set of sites fitting model is used for the calorimetry data analysis, with cell concentration and syringe concentration as the input parameters. For compound IA01, the N was set to 1 to improve the fit.

[2] = RNase activity, mean (± SEM), read-out: IRE1α IC50
[3] = source data, unit from Fig. 3 / sheet Fig. 2b, read-out: IRE1a IC50, individual replicates (n1-n4)

IC50 [1, 2] | p-IRE1a ∆Tm(°C) (p-IRE1α; compound 3.125 μM) | effect on IRE1α RNase activity in the FRET assay [1] | KD (competition ITC) (dephosphorylated IRE1α; G1749 to IRE1α with 1 mM IA107, ND, not detectable) | SMILES | IC50 [1, 3] | p-IRE1a ∆Tm(°C) (p-IRE1α; compound 1.563 μM) | p-IRE1a ∆Tm(°C) (p-IRE1α; compound 6.25 μM) | p-IRE1a ∆Tm(°C) (p-IRE1α; compound 12.5 μM) | p-IRE1a ∆Tm(°C) (p-IRE1α; compound 25 μM) | p-IRE1a ∆Tm(°C) (p-IRE1α; compound 50 μM) | p-IRE1a ∆Tm(°C) (p-IRE1α; compound 100 μM) | Kd (dephosphorylated IRE1α) [µM] | activity (fold change) ([1]; 5.55556 μM) | activity (fold change) ([1]; 16.6667 μM) | activity (fold change) ([1]; 50 μM)
0.066 µM and 0.0664 µM | 0.29 °C (2×) and 0.42 °C and 0.19 °C |  |  | Cc1ccc2c(c1)c(CCC(=O)O)c(C)n2C(=O)c1ccccc1 [IA147] | 0.0906 µM and 0.0455 µM and 0.0632 µM | 0.22 °C and 0.13 °C and 0.08 °C and 0.11 °C | 0.58 °C and 0.78 °C and 0.38 °C and 0.50 °C | 0.95 °C and 0.90 °C and 0.84 °C and 1.22 °C | 1.52 °C and 1.79 °C and 1.41 °C and 1.95 °C | 2.33 °C and 2.18 °C and 1.98 °C and 2.60 °C | 3.18 °C and 2.83 °C and 2.92 °C and 3.09 °C | 2.99 |  |  | 
 |  | activating IRE1α activity | did not show a detectable binding | CCOC(=O)Nc1cccc2c(Oc3ncccc3-c3ccnc(N[C@H]4CCCNC4)n3)c(C)ccc12 [Compound G1749, reference compound] |  |  |  |  |  |  |  |  | 6.184 fold change and 6.333 fold change and 5.999 fold change and 6.267 fold change | 6.104 fold change and 5.222 fold change and 7.238 fold change and 6.279 fold change | 5.173 fold change and 5.3757 fold change and 6.203 fold change and 5.356 fold change
0.021 µM |  |  |  | Cc1ccc2c(NS(=O)(=O)c3ccccc3Cl)cccc2c1Oc1ncccc1-c1ccnc(N[C@H]2CCCNC2)n1 [KIRA8] |  |  |  |  |  |  |  |  |  |  | 

SMILES | IC50 [1, 2] | p-IRE1a ∆Tm(°C) (p-IRE1α; compound 3.125 μM) | effect on IRE1α RNase activity in the FRET assay [1] | KD (competition ITC) (dephosphorylated IRE1α; G1749 to IRE1α with 1 mM IA107, ND, not detectable) | IC50 [1, 3] | p-IRE1a ∆Tm(°C) (p-IRE1α; compound 1.563 μM) | p-IRE1a ∆Tm(°C) (p-IRE1α; compound 6.25 μM) | p-IRE1a ∆Tm(°C) (p-IRE1α; compound 12.5 μM) | p-IRE1a ∆Tm(°C) (p-IRE1α; compound 25 μM) | p-IRE1a ∆Tm(°C) (p-IRE1α; compound 50 μM) | p-IRE1a ∆Tm(°C) (p-IRE1α; compound 100 μM) | Kd (dephosphorylated IRE1α) [µM] | activity (fold change) ([1]; 5.55556 μM) | activity (fold change) ([1]; 16.6667 μM) | activity (fold change) ([1]; 50 μM)
COc1ccc2c(c1)c(CCC(=O)O)c(C)n2C(=O)c1ccccc1 [IA64] | 0.03 µM and 0.0349 µM |  |  |  | 0.0441 µM and 0.0367 µM and 0.0384 µM and 0.0204 µM |  | 0.67 °C and 0.63 °C | 1.12 °C and 1.05 °C | 1.46 °C and 1.49 °C | 2.16 °C and 2.21 °C |  | 2.96 |  |  | 
